Measured values published in ChEMBL document CHEMBL4616596, “Structural insights into the active site of poly(ADP-ribose) glycohydrolase using docking modes of 6-hydroxy-3H-xanthen-3-one derivative inhibitors” (Bioorg Med Chem, 2020).

These compounds were tested against Poly(ADP-ribose) glycohydrolase (Homo sapiens, UniProt Q86W56) (assay: Inhibition of recombinant human PARG assessed as mono(ADP-R) release using PAR as substrate measured after 15 mins by HPLC analysis).
Poly(ADP-ribose) glycohydrolase, sequence (Q86W56 whole entry): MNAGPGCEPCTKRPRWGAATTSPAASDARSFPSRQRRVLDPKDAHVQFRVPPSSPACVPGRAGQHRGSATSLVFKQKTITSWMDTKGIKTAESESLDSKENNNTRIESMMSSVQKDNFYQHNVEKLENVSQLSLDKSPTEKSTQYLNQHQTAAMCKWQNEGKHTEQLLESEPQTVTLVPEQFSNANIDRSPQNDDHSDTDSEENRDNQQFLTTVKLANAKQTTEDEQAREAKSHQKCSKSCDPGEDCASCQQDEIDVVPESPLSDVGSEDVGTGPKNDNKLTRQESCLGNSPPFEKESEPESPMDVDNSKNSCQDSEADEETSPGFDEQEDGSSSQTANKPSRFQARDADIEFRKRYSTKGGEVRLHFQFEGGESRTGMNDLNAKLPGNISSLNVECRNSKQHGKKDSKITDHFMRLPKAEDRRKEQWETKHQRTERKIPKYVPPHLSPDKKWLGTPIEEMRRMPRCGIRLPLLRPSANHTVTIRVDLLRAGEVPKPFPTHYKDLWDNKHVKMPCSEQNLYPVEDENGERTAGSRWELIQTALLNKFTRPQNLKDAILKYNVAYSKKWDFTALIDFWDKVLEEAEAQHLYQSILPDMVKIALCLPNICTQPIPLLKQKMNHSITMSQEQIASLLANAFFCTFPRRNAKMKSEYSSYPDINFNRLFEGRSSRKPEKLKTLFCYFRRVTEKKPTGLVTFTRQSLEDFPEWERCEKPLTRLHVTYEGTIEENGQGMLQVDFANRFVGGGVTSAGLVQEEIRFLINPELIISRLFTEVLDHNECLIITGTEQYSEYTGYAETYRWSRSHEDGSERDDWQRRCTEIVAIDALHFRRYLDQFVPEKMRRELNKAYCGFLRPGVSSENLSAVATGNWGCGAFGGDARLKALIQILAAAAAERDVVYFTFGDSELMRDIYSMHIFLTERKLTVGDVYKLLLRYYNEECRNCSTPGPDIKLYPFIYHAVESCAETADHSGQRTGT

Row | IC50 [µM] | SMILES
1 | 120 | O=C(O)c1ccccc1-c1c2cc(I)c(=O)c(I)c-2oc2c(I)c(O)c(I)cc12
2 | 29.7 | O=C(O)c1c(Cl)c(Cl)c(Cl)c(Cl)c1-c1c2cc(I)c(=O)c(I)c-2oc2c(I)c(O)c(I)cc12 [ROSE BENGAL FREE ACID]
3 | 61.4 | O=C(O)c1c(Cl)ccc(Cl)c1-c1c2cc(I)c(=O)c(I)c-2oc2c(I)c(O)c(I)cc12

Row | SMILES | IC50 [µM]
4 | O=C(O)c1ccccc1-c1c2cc(Br)c(=O)c(Br)c-2oc2c(Br)c(O)c(Br)cc12 | > 300
5 | O=C(O)c1c(Cl)c(Cl)c(Cl)c(Cl)c1-c1c2cc(Br)c(=O)c(Br)c-2oc2c(Br)c(O)c(Br)cc12 | 106
